According to ChEMBL document CHEMBL1201862, “PubChem BioAssay data set” (2004):
The source made the active and inactive calls.

How the values were obtained:
Cytochrome P450 2C19 = Cytochrome P450 2C19 (Homo sapiens, UniProt P33261); experiment: Cytochrome panel assay with activity outcomes. Panel member name: p450-cyp2c19 Compounds with AC50 equal or less than 10 uM are considered active; assay type: functional
Cytochrome P450 2C9 = Cytochrome P450 2C9 (Homo sapiens, UniProt P11712)
[1] = Luminescence Cell-Based Dose Confirmation HTS to Identify Activators of 5'UTR Stem-Loop Driven Alpha-Synuclein mRNA Translation in H4 Neuroglioblastoma Cells. [Related pubchem assays: 1829 (Project Summary), 1814 (Primary HTS)]; assay type: functional
[2] = Luminescence Cell-Based Dose Response HTS to Identify Activators of Luciferase Translation or Activity in H4 […] Cells. [Related pubchem assays: 1829 (Project Summary), 1814 (Primary HTS)]; assay type: functional
BJ [3] = experiment: BJ-TERT fibroblast viability loss – cell-based, RAS-independent, luminescence, dose response (AID 1933); assay type: functional; details: Homo sapiens
H4 = experiment: Luminescence Cell-Based Dose Response HTS to Identify Activators of 5'UTR Stem-Loop Driven Prion Protein mRNA Translation in H4 Neuroglioblastoma Cells. [Related pubchem assays: 1829 (Project Summary), 1814 (Primary HTS)]; assay type: functional; details: Homo sapiens
BJ [4] = experiment: cells; assay type: functional, cell-based; details: Homo sapiens
BJ [5] = experiment: BJ-TERT-LT-ST fibroblast viability loss – cell-based, RAS-independent, luminescence, dose response (AID 1935); assay type: functional; details: Homo sapiens;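 note: BJ fibroblasts immortalized with TERT plus LT and ST oncogenes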
[6] = DRD fibroblast viability loss – cell-based, non-viral oncogenic, luminescence, dose response (AID 1934); assay type: functional; details: Homo sapiens
[7] = biological target: T1, Microphthalmia-associated transcription factor (Homo sapiens, UniProt O75030); experiment: reducers of TRPM1 reporter luminescence, concentration series – cell-based, SK-MEL-5, cherry-picked, set 3, MITF inhibitor project, dose response (AID 493073); assay type: functional;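 note: SK-MEL-5 melanoma cells with luciferase driven by the MITF target TRPM1 promoter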
T1 sequence (O75030 whole entry): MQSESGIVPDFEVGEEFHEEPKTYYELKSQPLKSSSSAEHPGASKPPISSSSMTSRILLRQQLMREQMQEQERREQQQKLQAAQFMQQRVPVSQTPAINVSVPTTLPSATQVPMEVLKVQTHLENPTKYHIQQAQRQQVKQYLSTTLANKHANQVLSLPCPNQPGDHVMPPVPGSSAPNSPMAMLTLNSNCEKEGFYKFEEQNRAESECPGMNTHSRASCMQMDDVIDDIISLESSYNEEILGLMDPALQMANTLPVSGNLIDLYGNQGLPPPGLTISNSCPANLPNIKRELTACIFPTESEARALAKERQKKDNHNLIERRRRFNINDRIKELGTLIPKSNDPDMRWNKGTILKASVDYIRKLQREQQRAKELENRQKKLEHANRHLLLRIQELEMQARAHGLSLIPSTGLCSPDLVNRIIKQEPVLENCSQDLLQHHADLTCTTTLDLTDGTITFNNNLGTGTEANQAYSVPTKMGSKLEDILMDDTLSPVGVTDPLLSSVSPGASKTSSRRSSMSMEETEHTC

Protein skinhead-1 = biological target: T2, Protein skinhead-1 (Caenorhabditis elegans, UniProt P34707); assay type: functional
T2 sequence (P34707 whole entry): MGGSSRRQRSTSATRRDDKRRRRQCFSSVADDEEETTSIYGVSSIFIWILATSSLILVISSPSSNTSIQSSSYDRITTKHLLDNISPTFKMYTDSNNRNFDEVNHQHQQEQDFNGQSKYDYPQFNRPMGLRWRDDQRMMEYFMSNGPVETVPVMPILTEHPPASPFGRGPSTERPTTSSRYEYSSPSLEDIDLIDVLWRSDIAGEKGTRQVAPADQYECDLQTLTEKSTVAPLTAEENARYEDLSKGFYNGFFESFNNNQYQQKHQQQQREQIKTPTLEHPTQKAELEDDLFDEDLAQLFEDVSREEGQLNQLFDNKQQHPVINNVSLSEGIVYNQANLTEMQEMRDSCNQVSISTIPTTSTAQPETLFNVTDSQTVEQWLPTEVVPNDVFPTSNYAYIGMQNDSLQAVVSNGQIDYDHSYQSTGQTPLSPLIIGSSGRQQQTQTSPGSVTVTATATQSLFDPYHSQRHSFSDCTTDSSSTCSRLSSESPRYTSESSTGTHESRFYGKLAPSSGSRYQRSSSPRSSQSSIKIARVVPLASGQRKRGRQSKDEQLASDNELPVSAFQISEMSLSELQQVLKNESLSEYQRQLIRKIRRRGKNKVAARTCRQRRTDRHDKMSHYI

[8] = biological target: Luciferin 4-monooxygenase (Photinus pyralis, UniProt P08659); experiment: inhibition of purified Photinus pyralis luciferase – biochemical, luminescence, dose response (AID 1891)
[9] = Luminescence Cell-Based Dose Confirmation HTS to Identify Inhibitors of Platelet Dense Granule Release. [Related pubchem assays: 1663 (Primary HTS), 1678 (Summary of Project)]; assay type: functional
[10] = biological target: T3, Heat shock factor protein 1 (Mus musculus, UniProt P38532); experiment: enhancement of HSF1-driven luciferase signal – cell-based, NIH3T3, luminescence, dose retest, confirmation (AID 435004); assay type: functional;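 note: stress induced by proteasome inhibitor MG132 added 30 min after compound; luciferase reporter driven by HSF1 response element in NIH3T3 cells; actives raise luminescence as potentiators of the MG132 stress response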
T3 sequence (P38532 whole entry): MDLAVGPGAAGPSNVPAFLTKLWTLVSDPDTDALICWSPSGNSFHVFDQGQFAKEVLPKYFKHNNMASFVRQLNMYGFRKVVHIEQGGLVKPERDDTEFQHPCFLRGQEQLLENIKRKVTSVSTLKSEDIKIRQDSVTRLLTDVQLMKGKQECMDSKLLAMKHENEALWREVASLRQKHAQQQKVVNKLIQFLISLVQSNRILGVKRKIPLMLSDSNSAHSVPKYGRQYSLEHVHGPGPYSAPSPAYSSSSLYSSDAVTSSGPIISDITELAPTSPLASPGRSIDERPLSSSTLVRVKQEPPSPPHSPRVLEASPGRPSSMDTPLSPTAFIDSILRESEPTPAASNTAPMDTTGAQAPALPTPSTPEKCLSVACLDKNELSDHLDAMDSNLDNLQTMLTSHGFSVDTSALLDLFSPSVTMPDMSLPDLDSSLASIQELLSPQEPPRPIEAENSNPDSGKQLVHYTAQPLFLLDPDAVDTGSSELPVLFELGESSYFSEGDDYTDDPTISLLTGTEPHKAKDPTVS

Genome polyprotein = Genome polyprotein (dengue virus type 2, UniProt P29990); experiment: flavivirus cap methylation enzyme inhibition – biochemical, confirmation dose response, primary screen (AID 588689); assay type: functional
Cytochrome P450 1A2 = biological target: T4, Cytochrome P450 1A2 (Homo sapiens, UniProt P05177);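 note: PubChem cytochrome P450 panel assay, CYP1A2 panel member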
T4 sequence (P05177 whole entry): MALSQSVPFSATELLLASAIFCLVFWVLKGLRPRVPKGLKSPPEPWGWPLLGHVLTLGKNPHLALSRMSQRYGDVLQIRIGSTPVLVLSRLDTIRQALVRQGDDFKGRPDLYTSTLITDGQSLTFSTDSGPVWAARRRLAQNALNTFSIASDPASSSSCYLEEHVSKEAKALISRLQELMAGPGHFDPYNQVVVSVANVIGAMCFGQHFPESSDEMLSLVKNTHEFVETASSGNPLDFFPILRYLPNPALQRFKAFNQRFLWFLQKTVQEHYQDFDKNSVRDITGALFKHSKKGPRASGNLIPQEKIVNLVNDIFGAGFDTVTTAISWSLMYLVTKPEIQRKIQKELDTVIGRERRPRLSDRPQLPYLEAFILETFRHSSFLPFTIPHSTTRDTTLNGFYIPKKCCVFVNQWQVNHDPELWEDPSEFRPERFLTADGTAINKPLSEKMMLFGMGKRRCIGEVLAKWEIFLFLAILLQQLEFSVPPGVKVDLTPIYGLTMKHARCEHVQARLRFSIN

Tumor necrosis factor = Tumor necrosis factor (Homo sapiens, UniProt P01375); experiment: analog potency on TNFa NF-kB signaling – cell-based, revised, SAR follow-up (AID 2337); assay type: functional
[11] = biological target: T5, Nucleotide-binding oligomerization domain-containing protein 1 (Homo sapiens, UniProt Q9Y239); experiment: blockers of NOD1 pathway activity – revised, SAR follow-up (AID 2333); assay type: functional
T5 sequence (Q9Y239 whole entry): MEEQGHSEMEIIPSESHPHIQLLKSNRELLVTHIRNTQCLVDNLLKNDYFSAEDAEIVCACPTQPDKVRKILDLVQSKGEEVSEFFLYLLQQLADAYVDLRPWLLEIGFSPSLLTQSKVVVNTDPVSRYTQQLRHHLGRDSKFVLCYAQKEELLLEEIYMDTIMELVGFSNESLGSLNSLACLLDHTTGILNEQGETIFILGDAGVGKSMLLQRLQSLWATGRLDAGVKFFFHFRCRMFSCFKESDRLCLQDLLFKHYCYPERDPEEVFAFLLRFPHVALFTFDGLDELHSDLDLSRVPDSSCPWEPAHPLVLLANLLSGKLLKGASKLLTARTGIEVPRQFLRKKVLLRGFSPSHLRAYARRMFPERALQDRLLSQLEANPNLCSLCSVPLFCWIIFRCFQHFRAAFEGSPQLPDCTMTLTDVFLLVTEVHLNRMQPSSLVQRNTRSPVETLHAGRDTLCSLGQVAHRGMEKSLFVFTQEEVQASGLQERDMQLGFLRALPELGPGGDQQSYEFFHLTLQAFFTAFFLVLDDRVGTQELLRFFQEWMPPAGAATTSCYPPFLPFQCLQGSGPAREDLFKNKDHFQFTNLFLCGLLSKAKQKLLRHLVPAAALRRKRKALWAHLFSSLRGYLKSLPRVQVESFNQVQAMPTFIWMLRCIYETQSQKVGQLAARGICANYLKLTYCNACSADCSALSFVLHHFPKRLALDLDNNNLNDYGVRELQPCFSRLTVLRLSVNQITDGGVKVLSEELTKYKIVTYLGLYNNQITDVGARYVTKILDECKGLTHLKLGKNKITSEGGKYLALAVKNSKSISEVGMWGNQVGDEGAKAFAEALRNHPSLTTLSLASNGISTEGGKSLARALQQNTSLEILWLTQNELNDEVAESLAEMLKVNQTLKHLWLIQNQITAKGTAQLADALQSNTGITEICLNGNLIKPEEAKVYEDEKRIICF

HEK293 = experiment: cells; details: Homo sapiens;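 note: cells exposed to compound for 14 hours overnight before viability readout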
[12] = Luminescence Cell-Based Dose Retest to Confirm Inhibitors of Cancer Stem Cells. [Related pubchem assays (depositor defined):AID2717, AID2721]; assay type: functional; details: Homo sapiens
Cytochrome P450 3A4 = Cytochrome P450 3A4 (Homo sapiens, UniProt P08684);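 note: CYP3A4 tested as one member of a cytochrome P450 panel screen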
Chain of Cytochrome P450 3A4 (P08684 whole entry): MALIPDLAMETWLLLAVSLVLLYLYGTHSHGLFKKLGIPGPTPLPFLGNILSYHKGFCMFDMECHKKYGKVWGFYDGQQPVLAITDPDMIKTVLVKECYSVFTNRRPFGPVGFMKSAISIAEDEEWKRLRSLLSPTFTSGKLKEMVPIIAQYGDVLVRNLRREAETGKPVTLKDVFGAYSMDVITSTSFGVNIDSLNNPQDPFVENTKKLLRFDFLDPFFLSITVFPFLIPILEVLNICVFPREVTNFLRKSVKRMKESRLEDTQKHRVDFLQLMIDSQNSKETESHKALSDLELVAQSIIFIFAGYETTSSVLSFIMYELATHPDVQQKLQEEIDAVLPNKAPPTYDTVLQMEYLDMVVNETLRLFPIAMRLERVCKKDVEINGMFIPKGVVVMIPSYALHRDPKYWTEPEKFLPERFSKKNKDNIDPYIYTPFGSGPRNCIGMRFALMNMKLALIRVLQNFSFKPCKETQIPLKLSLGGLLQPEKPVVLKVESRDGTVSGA

Chain of Cytochrome P450 2C9 (P11712 whole entry): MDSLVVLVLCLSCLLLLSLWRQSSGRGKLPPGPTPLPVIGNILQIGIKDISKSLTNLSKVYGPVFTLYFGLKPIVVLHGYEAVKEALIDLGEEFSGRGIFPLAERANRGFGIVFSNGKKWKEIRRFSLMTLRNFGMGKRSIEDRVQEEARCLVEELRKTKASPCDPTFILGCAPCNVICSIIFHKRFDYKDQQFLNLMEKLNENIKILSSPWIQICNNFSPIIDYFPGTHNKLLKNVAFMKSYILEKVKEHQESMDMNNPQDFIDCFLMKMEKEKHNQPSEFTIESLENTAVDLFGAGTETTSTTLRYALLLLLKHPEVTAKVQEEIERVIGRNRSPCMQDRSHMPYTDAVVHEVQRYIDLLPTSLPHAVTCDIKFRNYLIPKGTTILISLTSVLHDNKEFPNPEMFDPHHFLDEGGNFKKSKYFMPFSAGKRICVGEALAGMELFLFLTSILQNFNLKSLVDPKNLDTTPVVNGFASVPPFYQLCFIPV
Chain of Tumor necrosis factor (P01375 whole entry, the tested form may be a part): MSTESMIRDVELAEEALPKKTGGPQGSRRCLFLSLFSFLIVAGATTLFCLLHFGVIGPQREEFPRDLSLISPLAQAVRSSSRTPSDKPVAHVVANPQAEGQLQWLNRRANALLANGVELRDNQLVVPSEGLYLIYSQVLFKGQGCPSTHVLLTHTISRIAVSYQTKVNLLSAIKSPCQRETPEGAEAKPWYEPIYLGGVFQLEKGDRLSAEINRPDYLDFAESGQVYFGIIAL
Chain of Cytochrome P450 2C19 (P33261 whole entry): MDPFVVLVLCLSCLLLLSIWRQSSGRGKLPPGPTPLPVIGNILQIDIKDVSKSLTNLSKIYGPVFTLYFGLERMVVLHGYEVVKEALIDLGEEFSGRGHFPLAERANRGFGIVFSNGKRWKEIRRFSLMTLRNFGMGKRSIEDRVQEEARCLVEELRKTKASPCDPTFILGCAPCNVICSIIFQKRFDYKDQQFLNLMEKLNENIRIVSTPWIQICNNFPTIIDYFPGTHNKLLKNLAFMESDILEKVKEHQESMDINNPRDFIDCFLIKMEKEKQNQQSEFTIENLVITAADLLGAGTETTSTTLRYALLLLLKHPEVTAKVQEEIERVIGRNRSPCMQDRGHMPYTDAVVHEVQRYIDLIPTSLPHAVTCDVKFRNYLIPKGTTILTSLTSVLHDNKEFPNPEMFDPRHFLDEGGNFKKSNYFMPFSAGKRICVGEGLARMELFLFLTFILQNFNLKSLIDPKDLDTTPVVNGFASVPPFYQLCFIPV
Chain of Luciferin 4-monooxygenase (P08659 whole entry): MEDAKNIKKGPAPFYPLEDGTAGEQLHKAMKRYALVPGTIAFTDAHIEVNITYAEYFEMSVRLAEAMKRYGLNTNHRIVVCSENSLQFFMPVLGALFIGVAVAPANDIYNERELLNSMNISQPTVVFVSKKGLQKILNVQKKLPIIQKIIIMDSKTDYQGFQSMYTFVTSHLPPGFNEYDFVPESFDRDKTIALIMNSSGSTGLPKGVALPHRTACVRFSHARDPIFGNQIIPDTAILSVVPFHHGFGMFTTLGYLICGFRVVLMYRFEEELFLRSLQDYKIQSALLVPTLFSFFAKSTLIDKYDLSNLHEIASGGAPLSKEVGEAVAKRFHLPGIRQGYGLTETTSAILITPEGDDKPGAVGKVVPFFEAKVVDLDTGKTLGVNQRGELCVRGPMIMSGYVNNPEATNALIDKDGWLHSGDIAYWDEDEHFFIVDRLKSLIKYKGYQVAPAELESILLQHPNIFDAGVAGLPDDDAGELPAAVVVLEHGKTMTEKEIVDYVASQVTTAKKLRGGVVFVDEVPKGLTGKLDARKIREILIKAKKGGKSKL
Chain of Genome polyprotein (P29990 2492-3391 limits assumed): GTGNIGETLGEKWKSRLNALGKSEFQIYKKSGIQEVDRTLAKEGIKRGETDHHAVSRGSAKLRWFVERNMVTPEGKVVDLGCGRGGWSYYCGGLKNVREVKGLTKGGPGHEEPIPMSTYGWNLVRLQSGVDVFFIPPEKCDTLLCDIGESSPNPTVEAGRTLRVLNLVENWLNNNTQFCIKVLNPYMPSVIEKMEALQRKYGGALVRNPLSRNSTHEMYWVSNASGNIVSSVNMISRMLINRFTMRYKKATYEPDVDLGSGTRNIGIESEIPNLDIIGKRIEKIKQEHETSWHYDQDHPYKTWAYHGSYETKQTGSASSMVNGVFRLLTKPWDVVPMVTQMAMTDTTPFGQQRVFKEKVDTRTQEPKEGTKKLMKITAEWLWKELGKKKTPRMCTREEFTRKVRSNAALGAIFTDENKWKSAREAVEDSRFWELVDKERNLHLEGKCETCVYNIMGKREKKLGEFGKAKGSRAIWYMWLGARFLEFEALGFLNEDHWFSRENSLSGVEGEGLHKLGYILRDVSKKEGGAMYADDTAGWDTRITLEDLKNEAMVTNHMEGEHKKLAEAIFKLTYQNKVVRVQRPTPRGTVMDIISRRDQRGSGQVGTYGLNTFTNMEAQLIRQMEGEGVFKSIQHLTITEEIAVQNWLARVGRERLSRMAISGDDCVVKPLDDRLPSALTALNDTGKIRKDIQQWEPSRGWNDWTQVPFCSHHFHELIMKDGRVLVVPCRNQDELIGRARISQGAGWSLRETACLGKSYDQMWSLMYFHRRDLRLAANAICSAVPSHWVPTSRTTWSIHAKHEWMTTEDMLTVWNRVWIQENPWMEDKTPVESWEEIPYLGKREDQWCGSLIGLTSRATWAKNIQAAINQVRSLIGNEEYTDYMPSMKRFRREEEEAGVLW

In the case of `Cc1cc(C(=O)O)c(O)nc1C`, the AC50 (Cytochrome P450 2C19) is reported as “inconclusive” and the AC50 (Cytochrome P450 2C9) is reported as “inconclusive”.
With `COc1cc2c(cc1OC)C(c1ccccc1)N(C(=O)CCl)CC2` (stereo not given) the EC50 [1] was > 120 µM (not active), the EC50 [2] was > 120 µM (not active) and the EC50 (BJ [3]) was 5.08 µM (inconclusive). The EC50 (H4) was > 120 µM (not active), the EC50 (BJ [4]) was 7.81 µM (inconclusive) and the EC50 (BJ [5]) was 4.74 µM (active). The EC50 [6] was 8.09 µM (active), the AC50 [7] was 5.36 µM (active) and the IC50 (Protein skinhead-1) was > 100 µM (inactive).
For `CC1(C)CC(=O)C=C(NC2=CC3OC(c4ccccc4)OCC3OC2=O)C1` (stereo not given), the EC50 [8] was > 112 µM (not active), the EC50 [9] was 14.8 µM (active) and the EC50 [10] was 6.65 µM (inconclusive). For the same molecule, the AC50 [7] was 7.71 µM (active) and the IC50 (Genome polyprotein) was > 100 µM (active).
For `COc1ccc(OC)c2nc(O)c(CCNC(=O)C3CCCCC3)cc12`, the AC50 (Cytochrome P450 1A2) was 20 µM (inconclusive) and the AC50 (Cytochrome P450 2C9) was “inconclusive”.
In the case of `CSc1ccc(NC(=O)c2ccc(CN3CCc4ccccc43)cc2)cc1`, the IC50 (Tumor necrosis factor) is reported as > 20 µM (inactive), the IC50 [11] is reported as > 20 µM (inactive) and the IC50 (HEK293) is reported as > 20 µM (inactive).
With `N#Cc1cccc(NC(=O)CSc2nc3scc(-c4ccccc4)c3c(=O)[nH]2)c1` the IC50 (Tumor necrosis factor) was > 20 µM (inactive), the IC50 [11] was > 20 µM (inactive) and the IC50 (HEK293) was > 20 µM (inactive).
In the case of `COc1cccc(/C=N/NC(=O)CSc2nnc(C)n2-c2ccccc2)c1O`, the AC50 [12] is reported as 11.9 µM (active), the AC50 (Cytochrome P450 2C19; read-out: AC50) is reported as 31.6 µM (inconclusive) and the AC50 (Cytochrome P450 1A2) is reported as 35.5 µM (inconclusive). The AC50 (Cytochrome P450 3A4) was 4.47 µM (inconclusive) and the AC50 (Cytochrome P450 2C9) was “inconclusive”.
In the case of `NS(=O)(=O)c1cc(Cl)c(Cl)c(S(N)(=O)=O)c1` [DICHLORPHENAMIDE], the AC50 (Cytochrome P450 2C9) is reported as “inconclusive”.
